Measured values taken from PMC10526274, “Epithelial-Immune Cell Crosstalk Determines the Activation of Immune Cells In Vitro by the Human Cathelicidin LL-37 at Low Physiological Concentrations” (Biomolecules, 2023).

System: NKT cells (CD3+CD56+)
Experiment: Multiplex xMAP cytokine levels, NKT cells alone stimulated with LL-37
Type: cell-based, human
Conditions: 1 µM LL-37, 24 h
Description: NKT cells (CD3^+CD56^+) were isolated from PBMCs using the FACSVantageDiVa cell sorter (Becton Dickinson, Franklin Lakes, NJ, USA), equipped with 405, 488, and 643 nm lasers (Supporting Materials, Figure S1). PBMCs were re-suspended in the FACS buffer (PBS containing 0.5% BSA and 2 mM EDTA) and labeled with monoclonal mouse anti-human CD3-APC (clone UCHT1, Beckman Coulter, Pasadena, CA, USA) and mouse anti-human CD56-PE/Cy7 (clone N901, Beckman Coulter) antibodies to isolate NKT cells (CD3^+CD56^+).
Sorted NKT cells were expanded by stimulation with Dynabead Human T-Expander CD3/CD28 magnetic beads (Gibco) in RPMI-1640 medium containing 10% FBS, 1X antibiotic–antimycotic solution, 100 U/mL IL-2 (Gibco), and 50 ng/mL IL-7 (Sci-Store). CD3/CD28 magnetic beads were subsequently removed with a magnet. Expanded NKT cells were washed out of the cytokines and cryopreserved.
Primary blood monocytes, moDCs, and NKT cells were seeded in 600 µL of complete RPMI-1640 with 10% Human AB serum (Capricorn Scientific, Ebsdorfergrund, Germany) and supplemented with 1X antibiotic–antimycotic solution into the wells of 24-well plates at a density of 3–7 × 10^5 cells/well 24 h before the experiment. Then, 24 h later, the medium in each well was replaced by the same medium with 1 µM of LL-37 for the sample wells or fresh medium alone for the control wells, and the permeable inserts with the Caco-2 monolayer with TEER > 400 Ω × cm^2, containing 400 μL of the complete medium in their apical chamber, were immediately placed into the appropriate wells. Also, inserts with the Caco-2 monolayer were placed in cell-free wells of 24-well plates in the same complete RPMI-1640 medium with or without 1 µM of LL-37 as controls. Cells were kept in a CO2-incubator (5% CO2, 37 °C) for another 24 h. Then, culture medium from each well was collected, centrifuged, and frozen at −70 °C.
To quantitatively evaluate a broad spectrum of analytes secreted by human cell cultures at the protein level, multiplex xMAP technology was used. The chosen panel (cat. #HCYTA-60K-PX48, Merck, Darmstadt, Germany) included 48 different magnetic beads with primary antibodies to the following cytokines, chemokines, and growth factors: CCL11 (Eotaxin-1), Flt-3 ligand, CX3CL1 (Fractalkine), sCD40L, FGF-2, EGF, GROα, GM-CSF, G-CSF, IL-1RA, IL-1α, IL-1β, IL-2, IL-3, IL-4, IL-5, IL-6, IL-7, CXCL8 (IL-8), IL-9, IL-10, IL-12p40, IL-12p70, IL-13, IL-15, IL-17A (CTLA8), IL-17E (IL-25), IL-17F, IL-18, IL-22, IL-27, IFNγ, IFNα2, CXCL10 (IP-10), CCL2 (MCP-1), CCL7 (MCP-3), CCL22 (MDC), CXCL9 (MIG), CCL3 (MIP-1α), CCL4 (MIP-1β), CCL5 (RANTES), M-CSF, PDGF-AA, PDGF-AB/BB, TNFα, TNFβ, TGFα, and VEGF-A. The assay was performed in accordance with the manufacturer’s instructions with overnight incubation of the samples with primary antibodies, and the plate was read on a MAGPIX System (Merck) using the xPONENT 4.2 software (Merck). The acquired fluorescence data were analyzed by the MILLIPLEX Analyst v5.1 software (Merck), which realized an advanced curve-fitting algorithm. Levels of the analytes in control and experimental samples were compared with an unpaired two-sample t-test using GraphPad Prism v.8.0.1 (GraphPad Software, Inc., San Diego, CA, USA). The p-values ≤ 0.05 were considered significant.

In the case of “LL-37: the only human cathelicidin, host defense antimicrobial peptide of 37 a.a. residues, produced by solid-phase peptide synthesis”, the IL-8 level (n=2, control 0.21) was 2.37 pg/mL, the IL-10 level (n=2, control 1.55) was <1.35↓ pg/ml and the IL-2 level (n=2, control 1.66) was 1.16 pg/mL. The FLT-3L level (n=2, control 1.72) was 1.67 pg/mL, the EGF level (n=2, control 2.26) was 2.26 pg/mL and the IL-6 level (n=2, control 3.12) was 1.89 pg/mL. For the same substance, the MCP-3 level (n=2, control 4.7) was 4.7 pg/mL, the MDC level (n=2, control 5.04) was 2.93 pg/mL and the IL-9 level (n=2, control 7.06) was 7.45 pg/mL. It also gave an MIG level (n=2, control 10.31) of 7.16 pg/mL, an IL-1a level (n=2, control 11.32) of 13.27 pg/mL and an IL-27 level (n=2, control 13.33) of 29.42 pg/mL. For the same substance, the IFNg level (n=2, control 13.41) was 12.33 pg/mL, the TNFa level (n=2, control 14.53) was 13.36 pg/mL and the sCD40L level (n=2, control 18.13) was <8.15↓ pg/ml. It also gave an FGF-2 level (n=2, control 29.25) of 21.45 pg/mL, an IP-10 level (n=2, control 56.07) of 50.77 pg/mL and a M-GSF level (n=2, control 66.65) of 60.35 pg/mL. The MIP-1b level (n=2, control 67.9) was 58.14 pg/mL, the GM-CSF level (n=2, control 76.24) was 76.06 pg/mL and the IL-13 level (n=2, control 251.23) was 237.88 pg/mL. The IL-5 level (n=2, control 323.09) was 285.93 pg/mL, the RANTES level (n=2, control 1182) was 1237 pg/mL and the MIP-1a level (n=2, control 1355) was 1113 pg/mL. The IL-7 level (n=2, control <0.30) was <0.30↓ pg/ml, the IL-18 level (n=2, control <0.30) was <0.30↓ pg/ml and the IL-3 level (n=2, control <0.55) was <0.55↓ pg/ml. The GROa level (n=2, control <0.66) was <0.66↓ pg/ml, the TGF-a level (n=2, control <0.68) was <0.68↓ pg/ml and the IL-17A level (n=2, control <0.70) was <0.70↓ pg/ml. The IL-1b level (n=2, control <0.74) was <0.74↓ pg/ml, the IL-4 level (n=2, control <0.87) was <0.87↓ pg/ml and the IL-1RA level (n=2, control <0.93) was <0.93↓ pg/ml. For the same substance, the TNFb level (n=2, control <0.93) was 1 pg/mL, the VEGFa level (n=2, control <1.26) was <1.26↓ pg/ml and the MCP-1 level (n=2, control <1.35) was <1.35↓ pg/ml. The IL-15 level (n=2, control <1.54) was <1.54↓ pg/ml, the “IL-12 (p70) level” value (n=2, control <1.71) was <1.71↓ pg/ml and the G-CSF level (n=2, control <2.32) was <2.32↓ pg/ml. For the same substance, the Eotaxin level (n=2, control <2.91) was <2.91↓ pg/ml, the “IL-12 (p40) level” value (n=2, control <3.33) was <3.33↓ pg/ml and the IFNa2 level (n=2, control <3.88) was <3.88↓ pg/ml. For the same substance, the PDGF-AB/BB level (n=2, control <5.00) was <5.00↓ pg/ml, the PDGF-AA level (n=2, control <6.49) was <6.49↓ pg/ml and the IL-22 level (n=2, control <6.61) was <6.61↓ pg/ml. For the same substance, the IL-17F level (n=2, control <12.19) was <12.19↓ pg/ml, the Fractalkine level (n=2, control <18.09) was <18.09↓ pg/ml and the IL-17E/IL-25 level (n=2, control <19.43) was <19.43↓ pg/ml.
